From patent publication US20120083472A1, “PHARMACEUTICAL COMPOSITION FOR PROMOTING THE HEALING OF WOUNDS AND CONTAINING LYSOPHOSPHATIDIC ACID AND AN ADENYLYL CYCLASE INHIBITOR AS ACTIVE INGREDIENTS” (SNU R&DB FOUNDATION, priority 2009, published 2012)

Legend:
Assay type in all cases: cell-based, human
[1] = system: young and senescent fibroblasts, HUVEC, skin keratinocytes; assay: Cell growth / proliferation (cell number count); conditions: for cell number in senescent cells of various cell types: senescent fibroblasts, old donor fibroblasts, HUVEC, keratinocytes, degree depends on cell type (FIG. 5)
Method: Sub-cultured young (PD 25, A) and senescent (PD 73, B) fibroblasts were serum-starved for 2 days and treated with LPA, 1 mM of dbcAMP (+dbcAMP), or 300 μM of ACI SQ22536 (+ACI) for 4 days. The number of cells was counted. The results shown represent the means±standard deviation of a representative experiment.
Sub-cultured young (PD 25) and senescent (PD 73) cells (A), fibroblasts from young and elderly donors (B), HUVEC (C) and skin keratinocytes (D) were serum-starved for 2 days and treated with LPA, and then treated with 1 mM of dibutyryl-cAMP, or 300 μM of ACI (SQ22536) for 4 days. The number of cells was counted. The results shown represent the means±standard deviation of a representative experiment.
(§1) Human umbilical vein endothelial cells (HUVEC) were isolated from endothelial cells of umbilical cords as described by Whang et al (Whang et al., 2005). Foreskin human fibroblasts and keratinocytes were isolated from newborn foreskins as described by Boyce and Ham (Boyce and Ham, 1983). Patient consents were obtained from all donors and the use of tissue samples was approved by the ethics committee of the Seoul National University. The obtained and isolated fibroblasts and HUVEC were maintained in DMEM containing 10% fetal bovine serum (FBS) and antibiotics, and keratinotyes were in keratinocyte growth medium (KGM) containing antibiotics. Cells from the early stage of culture were cultured to obtain aged cells, which were used in experiments (population doubling -PD- of less than 25 vs PD 65-70 in fibroblasts, PD less than 5 vs PD 10-12 in case of HUVEC). Senescent cells were characterized by morphological changes, enhanced […]β-galactosidase activity and a reduced rate of proliferation (Yeo et al., 2000). Cells were grown for 2 days to 60-70% sub-confluency in the culture medium after treatment with LPA or ACI, and then serum-starved to quiescence by incubating them with either serum free DMEM containing 0.1% BSA (fibroblasts or HUVEC) or KBM (keratinocytes) for 2 days.

[2] = system: young and senescent fibroblasts (HDFs); assay: In vitro wound healing assay (cell migration into acellular area); conditions: serum-starved; for migration of senescent cells: LPA 30 μM, ACI 300 μM, 72 hrs (FIGS. 6B, 6D); for migration of young cells: LPA 30 μM or ACI 300 μM, up to 72 hrs (FIGS. 6A, 6C)
Method: Sub-cultured young (A, C) and senescent cells (B, D) were serum-starved for 2 days and treated with ACI or dbcAMP (1 mM) for 2 hr at 37° C. An area was denuded by a yellow tip and the cells were then treated with LPA (30 μM) and incubated at 37° C. Photographs were taken at 6 hrs, 12 hrs, 18 hrs, 24 hrs, 30 hrs, 36 hrs, 42 hrs, 60 hrs, and 72 hrs, and the number of cells migrated into the acellular area was counted and the average values were plotted in A and B. The data at 72 hrs were replotted in a bar graph to show the significant changes induced by treating cells with either LPA or ACI, or both (C and D). The results shown represent the means±standard deviation of a representative experiment. Cell migration from each group (p<0.001) was compared to the control value the migration was read as having a significance.
LPA-induced cell migration was assessed by the ability of the cells to move into an acellular area (Shiraha et al., 2000). Cells were plated on a 10-cm plastic dish and grown to 70-80% confluence in the culture media with 10% FBS. After a 2-day quiescence in serum free media with 0.1% BSA, cells were pretreated with vehicle, ACI (300 μM), or dbcAMP (1 mM) for 2 hrs at 37° C. An area was denuded by a tip and the cells were then incubated at 37° C. without or with LPA (30 μM). Photographs were taken at 6 hrs, 12 hrs, 18 hrs, 24 hrs, 30 hrs, 36 hrs, 42 hrs, 60 hrs, and 72 hrs, and the number of cells migrating to the acellular area was counted.

[3] = system: cAMP level in young and senescent fibroblasts; assay: Measurement of cyclic AMP (cAMP) by competitive binding assay
Method: Sub-cultured young (PD 20) and senescent (PD 65) fibroblasts were treated with various concentrations of ACI for 1 hr. The level of cAMP in the acid extracts was measured by using a cAMP binding assay. The results shown represent the means±standard deviation of a representative experiment.
as §1
After removing the medium, 2.5 M of perchloric acid was added into the plate. The obtained acid extract was stored at […] until use, when the extract was neutralized with 4.2 M KOH and the cAMP content was determined by competitive binding with [^3H]-cAMP to the cAMP binding protein, RIα[…] of cAMP-dependent protein kinase (Jang and Juhnn, 2001). After the extraction, cells were lysed with 0.1 N NaOH and protein content was determined using Bradford protein assay reagent. The cAMP content was normalized versus the amount of acid-insoluble protein (expressed as the content of cAMP per protein concentration).

lysophosphatidic acid [LPA]
cell number (proliferation) ([1]; LPA 1-70 μM, 4 days, young and senescent fibroblasts (FIG. 3)): induces proliferation of both young and senescent cells in a dose-dependent manner | cell number in senescent cells of various cell types ([1]; 4 days): further enhanced | migration of senescent cells [2]: increased senescent cell migration at 72 hrs significantly | migration of young cells [2]: migration of cells is increased | concentration of cAMP in aged cells ([3]; aged fibroblasts, treatment with LPA): increased | concentration of cAMP in young cells ([3]; young fibroblasts, treatment with LPA): lowered

Nc1ncnc2c1ncn2C1CCCO1 (centres unmarked) [ACI, 9-(tetrahydro-2′-furyl)adenine]
proliferation of aged cells compared to treatment with LPA ([1]; aged fibroblasts): more increased | cell number in senescent cells following ACI treatment ([1]; senescent fibroblasts (PD 73), 300 μM ACI, 4 days, unlike young cells (FIG. 3B)): significant increase in the cell number | cell number in senescent cells of various cell types ([1]; 4 days): further enhanced | migration of senescent cells [2]: increase in cell migration | migration of young cells [2]: unaltered | cAMP levels at 300 μM ([3]; 300 μM ACI, both young and senescent cells (FIG. 2)): complete abrogation | concentration of cAMP in aged cells upon treatment with ACI ([3]; aged fibroblasts, ACI): again lowered | cAMP levels ([3]; various concentrations of ACI, 1 hr, young (PD 20) and senescent (PD 65) fibroblasts (FIG. 2)): dose-dependently reduced cAMP levels
